Test results as given in ChEMBL document CHEMBL3132828, “In vitro anticancer activity and SAR studies of triazolyl aminoacyl(peptidyl) penicillins” (Medchemcomm, 2014).

Columns and labels:
[1] = Cytotoxicity against mouse NMuMG cells assessed as hexosaminidase level after 72 hrs by colorimetric analysis; assay type: cell-based
[2] = Selectivity ratio of IC50 for mouse NMuMG cells to IC50 for mouse B16F0 cells; assay type: ADME, cell-based; conditions: NMuMG cells and B16F0 cells, read-out: Ratio IC50
HeLa [3] = experiment: Cytotoxicity against human HeLa cells assessed as hexosaminidase level after 72 hrs by colorimetric analysis; assay type: functional, cell-based
[4] = Cytotoxicity against mouse B16F0 cells assessed as hexosaminidase level after 72 hrs by colorimetric analysis; assay type: functional, cell-based; conditions: B16F0, 72 h
[5] = Selectivity ratio of IC50 for mouse NMuMG cells to IC50 for human HeLa cells; assay type: ADME, cell-based; conditions: NMuMG cells and HeLa cells, read-out: Ratio IC50
HeLa [6] = experiment: Cytotoxicity against human HeLa cells assessed as growth inhibition at 20 uM after 72 hrs by colorimetric analysis relative to control; assay type: functional; conditions: read-out: GI

Compound	IC50 [1]	selectivity ratio [2]	IC50 (HeLa [3])	IC50 [4]	selectivity ratio [5]	inhibition of growth at 20 µM (HeLa [6])
COC(=O)[C@H](Cc1ccccc1)NC(=O)[C@@H](NC(=O)c1cn(C[C@@H]2N3C(=O)C(Br)(Br)[C@H]3SC2(C)C)nn1)C(C)C	170 µM	19	16 µM	9 µM	10.6	
COC(=O)[C@H](Cc1ccc(O)cc1)NC(=O)[C@H](CC(C)C)NC(=O)c1cn(C[C@@H]2N3C(=O)C(Br)(Br)[C@H]3SC2(C)C)nn1	> 160 µM	> 7		22 µM		< 50%
COC(=O)[C@H](Cc1ccccc1)NC(=O)[C@H](CCSC)NC(=O)c1cn(C[C@@H]2N3C(=O)C(Br)(Br)[C@H]3SC2(C)C)nn1	275 µM	30.5	10 µM	9 µM	27.5	
COC(=O)[C@H](Cc1ccccc1)NC(=O)[C@@H]1CCCN1C(=O)c1cn(C[C@@H]2N3C(=O)C(Br)(Br)[C@H]3SC2(C)C)nn1	55 µM	5	17 µM	11 µM	3	
COC(=O)[C@H](CC(C)C)NC(=O)[C@H](CC(C)C)NC(=O)c1cn(C[C@@H]2N3C(=O)C(Br)(Br)[C@H]3SC2(C)C)nn1	88 µM	22	9 µM	4 µM	10	
COC(=O)[C@H](Cc1ccccc1)NC(=O)c1cn(C[C@@H]2N3C(=O)C(Br)(Br)[C@H]3SC2(C)C)nn1	125 µM	12.5	14 µM	10 µM	9	
CC[C@H](C)[C@H](NC(=O)c1cn(C[C@@H]2N3C(=O)C(Br)(Br)[C@H]3SC2(C)C)nn1)C(=O)N[C@@H](Cc1ccccc1)C(=O)OC	83 µM	9	15 µM	9 µM	5.5	
COC(=O)[C@H](Cc1ccccc1)NC(=O)[C@H](CC(C)C)NC(=O)c1cn(C[C@@H]2N3C(=O)C(Br)(Br)[C@H]3S(=O)(=O)C2(C)C)nn1	7 µM	3.5	2 µM	2 µM	3.5	
CC[C@H](C)[C@H](NC(=O)c1cn(C[C@@H]2N3C(=O)C(Br)(Br)[C@H]3SC2(C)C)nn1)C(=O)N[C@@H](Cc1ccc(O)cc1)C(=O)OC	95 µM	5		20 µM		< 50%
COC(=O)[C@H](Cc1ccccc1)NC(=O)[C@H](CC(C)C)NC(=O)c1cn(C[C@@H]2N3C(=O)C(Br)(Br)[C@H]3SC2(C)C)nn1	102 µM	34	3 µM	3 µM	34	
COC(=O)[C@H](Cc1ccccc1)NC(=O)[C@H](CC(C)C)NC(=O)c1cn(C[C@@H]2N3C(=O)C[C@H]3SC2(C)C)nn1	355 µM	35.5	13 µM	10 µM	27	
